Reference: patent US20120214822A1 (ASTRAZENECA AB, priority 2007, published 2012)

Molecular target: human active recombinant p38α-6His tagged (Homo sapiens, UniProt Q16539)
Test: P38 Alpha Enzyme Assay (AlphaScreen, biotinylated-ATF2 substrate);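 further: 0.5 nM final p38α, reaction started with ATP and run 45 min at 37 °C, phospho-ATF2 read by antibody-based AlphaScreen, background wells quenched with EDTA before ATP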
Format: biochemical
Conditions: p38 alpha enzyme inhibition; means of replicate determinations; 4 h pre-incubation at 37° C.; SD of assay 0.2-0.3 log units

Chain of human active recombinant p38α-6His tagged (Q16539 whole entry): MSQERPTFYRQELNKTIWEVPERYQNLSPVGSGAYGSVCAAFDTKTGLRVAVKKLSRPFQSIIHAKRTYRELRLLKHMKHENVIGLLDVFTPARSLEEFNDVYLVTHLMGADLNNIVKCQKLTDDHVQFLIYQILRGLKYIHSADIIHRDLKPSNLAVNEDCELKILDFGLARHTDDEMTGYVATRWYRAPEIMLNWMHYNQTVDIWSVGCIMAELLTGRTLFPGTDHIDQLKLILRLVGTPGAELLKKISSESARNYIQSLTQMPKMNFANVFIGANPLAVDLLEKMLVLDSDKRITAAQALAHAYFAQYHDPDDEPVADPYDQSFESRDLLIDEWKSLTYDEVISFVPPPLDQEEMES

pIC50	Structure (SMILES)
8.9	Cc1ccc(C(=O)NC2CC2)cc1-n1ccnc(N[C@@H](c2ccccc2)[C@@H](C)CN2CCC(F)CC2)c1=O [Example 174, N-Cyclopropyl-3-[3-[[(1R,2S)-3-(4-fluoro-1-piperidinyl)-2-methyl-1-phenylpropyl]amino]-2-oxo-1(2H)-pyrazinyl]-4-methyl-benzamide]
6.1	Cc1ccc(C(=O)NC2CC2)cc1-n1ccnc(NCc2ccc(C(C)(C)C)cc2)c1=O [Example 37, N-Cyclopropyl-3-[3-[[[4-(1,1-dimethylethyl)phenyl]methyl]amino]-2-oxo-1(2H)-pyrazinyl]-4-methyl-benzamide]
9.3	Cc1ccc(C(=O)NC2CC2)cc1-n1ccnc(NC(C)(C)c2ccccc2OC2CCNCC2)c1=O [Example 219, N-Cyclopropyl-4-methyl-3-[3-[[1-methyl-1-[2-(4-piperidinyloxy)phenyl]ethyl]amino]-2-oxo-1(2H)-pyrazinyl]-benzamide]
8.4	CCc1ccc(C(=O)NC2CC2)cc1-n1ccnc(NC(C)(C)c2ccccc2OCCN)c1=O [Example 292, 3-[3-({1-[2-(2-Aminoethoxy)phenyl]-1-methylethyl}amino)-2-oxopyrazin-1(2H)-yl]-N-cyclopropyl-4-ethylbenzamide]
10.1	CCNCCOc1ccc(F)cc1C1(Nc2nccn(-c3cc(C(=O)NC4CC4)ccc3C)c2=O)CC1 [Example 280, N-Cyclopropyl-3-[3-[[1-[2-[2-(ethylamino)ethoxy]-5-fluorophenyl]cyclopropyl]amino]-2-oxo-1(2H)-pyrazinyl]-4-methyl-benzamide]
7.5	Cc1ccc(C(=O)NC2CC2)cc1-n1ccnc(NC(CCN2CCOCC2)c2ccccc2)c1=O (stereo not drawn) [Example 77, N-Cyclopropyl-4-methyl-3-[3-[[3-(4-morpholinyl)-1-phenylpropyl]amino]-2-oxo-1(2H)-pyrazinyl]-benzamide]
8.7	COc1ccccc1[C@H](Nc1nccn(-c2cc(C(=O)NC3CC3)ccc2C)c1=O)[C@@H](C)CO [Example 274, N-Cyclopropyl-3-[3-[[(1R,2R)-3-hydroxy-1-(2-methoxyphenyl)-2-methylpropyl]amino]-2-oxo-1(2H)-pyrazinyl]-4-methyl-benzamide]
9.2	Cc1ccc(C(=O)NC2CC2)cc1-n1ccnc(N[C@@H](c2ccccc2)[C@@H](C)CNC(C)(C)C)c1=O [Example 153, N-Cyclopropyl-3-[3-[[(1R,2S)-3-[(1,1-dimethylethyl)amino]-2-methyl-1-phenylpropyl]amino]-2-oxo-1(2H)-pyrazinyl]-4-methyl-benzamide]
8.1	COC[C@H]1CCCN1C[C@@H](C)[C@@H](Nc1nccn(-c2cc(C(=O)NC3CC3)ccc2C)c1=O)c1ccccc1 [Example 148, N-Cyclopropyl-3-[3-[[(1R,2R)-3-[(2R)-2-(methoxymethyl)-1-pyrrolidinyl]-2-methyl-1-phenylpropyl]amino]-2-oxo-1(2H)-pyrazinyl]-4-methyl-benzamide]
10.2	Cc1c(F)cc(C(=O)NC2CC2)cc1-n1ccnc(NC(C)(C)c2ccccc2OCCNC(C)C)c1=O [Example 254, N-Cyclopropyl-3-fluoro-4-methyl-5-[3-[[1-methyl-1-[2-[2-[(1-methylethyl)amino]ethoxy]phenyl]ethyl]amino]-2-oxo-1(2H)-pyrazinyl]-benamide]
7.2	Cc1ccc(C(=O)NC2CC2)cc1-n1cc(C#N)nc(NCc2ccccc2)c1=O [Example 104, 3-[5-Cyano-2-oxo-3-[(phenylmethyl)amino]-1(2H)-pyrazinyl]-N-cyclopropyl-4-methyl-benzamide]
9.1	Cc1ccc(C(=O)NC2CC2)cc1-n1ccnc(NC(C)(C)c2ccccc2OCC2CCNCC2)c1=O [Example 214, N-Cyclopropyl-4-methyl-3-[3-[[1-methyl-1-[2-(4-piperidinylmethoxy)phenyl]ethyl]amino]-2-oxo-1(2H)-pyrazinyl]-benzamide]
